melting point | SMILES
179 °C | COc1ccc(C)cc1NC(=O)Nc1ccc(N2CCN(C(=O)Oc3ccccc3)CC2)cc1 [Example 47, 4-{4-[3-(2-methoxy-5-methyl-phenyl)-ureido]-phenyl}-piperazine-1-carboxylic acid phenyl ester]
> 240 °C (dec.) | COc1ccc(C)cc1NC(=O)Nc1ccc(N2CCN(C(=O)Nc3ccccc3Cl)CC2)cc1 [Example 56, 4-{4-[3-(2-methoxy-5-methyl-phenyl)-ureido]-phenyl}-piperazine-1-carboxylic acid (2-chloro-phenyl)-amide]
200 to 202 °C | COc1ccc(F)cc1NC(=O)Nc1ccc(N2CCN(C(=O)OC(C)(C)C)CC2)cc1 [Example 44, 4-{4-[3-(5-fluoro-2-methoxy-phenyl)-ureido]-phenyl}-piperazine-1-carboxylic acid tert-butyl ester]
184 to 186 °C | COc1ccc(C)cc1NC(=O)Nc1ccc(N2CCN(Cc3ccccc3)CC2)cc1 [Example 191, 1-[4-(4-benzyl-piperazin-1-yl)-phenyl]-3-(2-methoxy-5-methyl-phenyl)-urea]
105 to 107 °C | CCOc1ccc(C)cc1NC(=O)Nc1ccc(N2CCN(C(=O)OC(C)(C)C)CC2)cc1 [Example 41, 4-{4-[3-(2-ethoxy-5-methyl-phenyl)-ureido]-phenyl}-piperazine-1-carboxylic acid tert-butyl ester]
163 °C | CC(C)(C)OC(=O)N1CCN(c2ccc(NC(=O)Nc3cccc(Cl)c3)cc2)CC1 [Example 32, 4-{4-[3-(3-chloro-phenyl)-ureido]-phenyl}-piperazine-1-carboxylic acid tert-butyl ester]
207 to 209 °C | CCc1cccc(C)c1NC(=O)N1CCN(c2ccc(NC(=O)Nc3cc(C)ccc3OC)cc2)CC1 [Example 63, 4-{4-[3-(2-methoxy-5-methyl-phenyl)-ureido]-phenyl}-piperazine-1-carboxylic acid (2-ethyl-6-methyl-phenyl)-amide]
220 to 221 °C | COc1ccc(C)cc1NC(=O)Nc1ccc(N2CCN(c3ncccn3)CC2)cc1 [Example 193, 1-(2-methoxy-5-methyl-phenyl)-3-[4-(4-pyrimidin-2-yl-piperazin-1-yl)-phenyl]-urea]
201 to 202 °C | CCC(C)c1ccc(NC(=O)Nc2ccc(N3CCN(C(=O)OC(C)(C)C)CC3)cc2)cc1 (stereo not shown) [Example 25, 4-{4-[3-(4-sec-butyl-phenyl)-ureido]-phenyl}-piperazine-1-carboxylic acid tert-butyl ester]
224 °C | COc1ccc(C)cc1NC(=O)Nc1ccc(N2CCN(C(=O)NCc3ccccc3)CC2)cc1 [Example 50, 4-{4-[3-(2-methoxy-5-methyl-phenyl)-ureido]-phenyl}-piperazine-1-carboxylic acid benzylamide]
222 to 224 °C | Cc1ccc(Cl)c(NC(=O)Nc2ccc(N3CCN(C(=O)OC(C)(C)C)CC3)cc2)c1 [Example 29, 4-{4-[3-(2-chloro-5-methyl-phenyl)-ureido]-phenyl}-piperazine-1-carboxylic acid tert-butyl ester]
196 to 199 °C | COc1ccc(C)cc1NC(=O)Nc1ccc(N2CCN(C(=O)Nc3ccc(C)cc3C)CC2)cc1 [Example 71, 4-{4-[3-(2-methoxy-5-methyl-phenyl)-ureido]-phenyl}-piperazine-1-carboxylic acid (2,4-dimethyl-phenyl)-amide]
206 to 208 °C | Cc1ccc(F)cc1NC(=O)Nc1ccc(N2CCN(C(=O)OC(C)(C)C)CC2)cc1 [Example 36, 4-{4-[3-(5-fluoro-2-methyl-phenyl)-ureido]-phenyl}-piperazine-1-carboxylic acid tert-butyl ester]
224 °C | COc1ccc(C)cc1NC(=O)Nc1ccc(N2CCN(C(=O)Nc3c(F)cccc3F)CC2)cc1 [Example 55, 4-{4-[3-(2-methoxy-5-methyl-phenyl)-ureido]-phenyl}-piperazine-1-carboxylic acid (2,6-difluoro-phenyl)-amide]
167 to 170 °C | CCCCc1ccc(NC(=O)Nc2ccc(N3CCN(C(=O)OC(C)(C)C)CC3)cc2)cc1 [Example 34, 4-{4-[3-(4-butyl-phenyl)-ureido]-phenyl}-piperazine-1-carboxylic acid tert-butyl ester]
199 to 200 °C | COc1ccc(C)cc1NC(=O)Nc1ccc(N2CCN(C(=O)C(O)c3ncccc3C)CC2)cc1 (stereo not shown) [Example 427, 1-(4-{4-[2-hydroxy-2-(3-methyl-pyridin-2-yl)-acetyl]-piperazin-1-yl}-phenyl)-3-(2-methoxy-5-methyl-phenyl)-urea]
213 to 214 °C | COc1ccc(Cl)cc1NC(=O)Nc1ccc(N2CCN(C(=O)Nc3ccccc3C(F)(F)F)CC2)cc1 [Example 68, 4-{4-[3-(5-chloro-2-methoxy-phenyl)-ureido]-phenyl}-piperazine-1-carboxylic acid (2-trifluoromethyl-phenyl)-amide]
177 °C | CCC(C)c1ccccc1NC(=O)Nc1ccc(N2CCN(C(=O)OC(C)(C)C)CC2)cc1 (stereo not shown) [Example 21, 4-{4-[3-(2-sec-butyl-phenyl)-ureido]-phenyl}-piperazine-1-carboxylic acid tert-butyl ester]
160 °C | CCc1cccc(NC(=O)Nc2ccc(N3CCN(C(=O)OC(C)(C)C)CC3)cc2)c1 [Example 30, 4-{4-[3-(3-ethyl-phenyl)-ureido]-phenyl}-piperazine-1-carboxylic acid tert-butyl ester]
198 to 200 °C | CCOc1ccc(NC(=O)Nc2ccc(N3CCN(C(=O)OC(C)(C)C)CC3)cc2)cc1 [Example 23, 4-{4-[3-(4-ethoxy-phenyl)-ureido]-phenyl}-piperazine-1-carboxylic acid tert-butyl ester]
196 to 197 °C | CC(C)(C)OC(=O)N1CCN(c2ccc(NC(=O)Nc3ccccc3Cl)cc2)CC1 [Example 15, 4-{4-[3-(2-chloro-phenyl)-ureido]-phenyl}-piperazine-1-carboxylic acid tert-butyl ester]
127 °C | CC(C)(C)OC(=O)N1CCN(c2ccc(NC(=O)Nc3cc(Cl)ccc3NS(C)(=O)=O)cc2)CC1 [Example 12, 4-{4-[3-(5-chloro-2-methanesulfonylamino-phenyl)-ureido]-phenyl}-piperazine-1-carboxylic acid tert-butyl ester]
168 to 169 °C | CCOc1ccc(F)cc1NC(=O)Nc1ccc(N2CCN(C(=O)OC(C)(C)C)CC2)cc1 [Example 42, 4-{4-[3-(2-ethoxy-5-fluoro-phenyl)-ureido]-phenyl}-piperazine-1-carboxylic acid tert-butyl ester]
136 °C | COc1ccc(C)cc1NC(=O)Nc1ccc(N2CCN(C(N)=O)CC2)cc1 [Example 51, 4-{4-[3-(2-methoxy-5-methyl-phenyl)-ureido]-phenyl}-piperazine-1-carboxylic acid amide]
218 to 220 °C | COc1ccc(Cl)cc1NC(=O)Nc1ccc(N2CCN(C(=O)Nc3ccccc3F)CC2)cc1 [Example 67, 4-{4-[3-(5-chloro-2-methoxy-phenyl)-ureido]-phenyl}-piperazine-1-carboxylic acid (2-fluoro-phenyl)-amide]

Reference: patent publication US20070249620A1, “Urea Derivative” (priority 2004, published 2007)
